Assay results: patent US7420056B2, “Substituted bicyclic imidazo-3-ylamine compounds” (Gruenenthal GmbH, priority 2004, dated 2008)
pIC50: −log10 of the molar value. Where a name gives a salt, the structure may show the parent alone.

target: mGluR5 receptor (Sus scrofa, UniProt I3LUI7); experiment: Affinity for the mGluR5 receptor: inhibition of 3[H]-MPEP binding in pig brain homogenate; settings: 10 μM compound, 5 nM 3[H]-MPEP, read-out: mGluR5 receptor inhibition of ^3[H]-MPEP binding [10 μM] in % at a concentration of the example compounds of 10 μM
Outline: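 Pig brain membranes (450 μg protein; hemispheres without medulla, cerebellum and pons) in 30 mM Hepes pH 8.0 were incubated 60 min at room temperature with 5 nM [3H]-MPEP and compound at 10 μM. Bound radioactivity was filtered and counted. Nonspecific binding was defined with 10 μM MPEP.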

Chain of mGluR5 receptor (I3LUI7 19-1212): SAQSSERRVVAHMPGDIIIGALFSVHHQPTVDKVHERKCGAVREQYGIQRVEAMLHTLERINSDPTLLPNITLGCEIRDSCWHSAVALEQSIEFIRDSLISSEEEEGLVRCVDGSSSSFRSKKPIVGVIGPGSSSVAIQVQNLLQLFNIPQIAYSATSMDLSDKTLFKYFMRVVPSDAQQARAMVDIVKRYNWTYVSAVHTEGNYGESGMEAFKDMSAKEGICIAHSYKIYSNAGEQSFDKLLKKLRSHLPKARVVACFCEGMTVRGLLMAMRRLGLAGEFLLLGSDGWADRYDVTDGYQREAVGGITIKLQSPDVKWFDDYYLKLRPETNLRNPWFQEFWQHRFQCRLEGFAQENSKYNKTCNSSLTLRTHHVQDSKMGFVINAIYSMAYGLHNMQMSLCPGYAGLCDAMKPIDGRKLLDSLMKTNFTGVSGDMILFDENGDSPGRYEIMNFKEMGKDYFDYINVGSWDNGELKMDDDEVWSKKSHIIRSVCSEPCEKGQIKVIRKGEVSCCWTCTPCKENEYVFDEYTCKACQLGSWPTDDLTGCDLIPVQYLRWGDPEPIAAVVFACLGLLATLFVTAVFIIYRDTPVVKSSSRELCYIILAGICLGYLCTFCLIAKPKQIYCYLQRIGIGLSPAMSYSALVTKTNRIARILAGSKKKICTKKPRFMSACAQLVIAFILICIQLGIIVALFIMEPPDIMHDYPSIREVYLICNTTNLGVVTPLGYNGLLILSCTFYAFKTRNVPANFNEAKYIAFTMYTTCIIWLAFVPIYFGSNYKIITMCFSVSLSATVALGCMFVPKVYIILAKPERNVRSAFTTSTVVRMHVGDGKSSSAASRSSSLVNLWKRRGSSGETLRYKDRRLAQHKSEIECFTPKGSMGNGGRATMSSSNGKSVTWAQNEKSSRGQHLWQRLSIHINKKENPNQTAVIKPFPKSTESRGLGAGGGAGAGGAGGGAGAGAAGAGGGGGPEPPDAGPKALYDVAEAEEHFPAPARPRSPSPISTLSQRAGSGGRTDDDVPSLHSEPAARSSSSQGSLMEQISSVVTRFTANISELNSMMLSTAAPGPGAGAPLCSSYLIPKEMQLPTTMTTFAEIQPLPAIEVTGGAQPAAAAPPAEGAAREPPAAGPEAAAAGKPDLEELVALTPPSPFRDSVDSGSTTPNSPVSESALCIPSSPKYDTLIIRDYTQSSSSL

Row | SMILES | inhibition at 10 µM [%]
1 | C(#Cc1ccc(-c2nc3c(OCc4ccccc4)cccn3c2NCC2CCCCC2)s1)c1ccccc1 [Example 7, [8-benzyloxy-2-(5-phenylethynyl-thiophen-2-yl)-imidazo[1,2-a]pyridin-3-yl]-cyclohexylmethyl-amine] | 89
2 | Cc1cccc(C#Cc2cccc(-c3nc4cccc(C)n4c3NC(C)(C)CC(C)(C)C)c2)n1 [Example 291, 5-methyl-2-(3-((6-methylpyridin-2-yl)ethynyl)phenyl)-N-(2,4,4-trimethylpentan-2-yl)imidazo[1,2-a]pyridin-3-amine] | 92
3 | CC(C)(C)Nc1c(-c2ccc(C#Cc3ccc(Cl)s3)s2)nc2ccccn12 [Example 338, tert-butyl-{2-[5-(5-chloro-thiophen-2-ylethynyl)-thiophen-2-yl]-imidazo[1,2-a]pyridin-3-yl}-amine hydrochloride] | 52
4 | Cc1ccc2nc(-c3ccc(C#Cc4ccccc4)s3)c(NC(C)(C)C)n2c1 [Example 19, tert-butyl-[6-methyl-2-(5-phenylethynyl-thiophen-2-yl)-imidazo[1,2-a]pyridin-3-yl]-amine] | 78
5 | CCCC(C)(C)Nc1c(-c2cc(C#Cc3ccccc3)cs2)nc2ccccn12 [Example 209, N-(2-methylpentan-2-yl)-2-(4-(phenylethynyl)thiophen-2-yl)imidazo[1,2-a]pyridin-3-amine] | 55
6 | CC(C)(C)Nc1c(-c2cc(C#Cc3ccccc3)cs2)nc2cnccn12 [Example 55, tert-butyl-[2-(4-phenylethynyl-thiophen-2-yl)-imidazo[1,2-a]pyrazin-3-yl]-amine] | 77
7 | Cc1cc(C)n2c(NCc3ccc(Cl)cc3)c(-c3cc(C#Cc4ccccc4)cs3)nc2c1 [Example 230, N-(4-chlorobenzyl)-5,7-dimethyl-2-(4-(phenylethynyl)thiophen-2-yl)imidazo[1,2-a]pyridin-3-amine] | 60
8 | C(#Cc1ccc(-c2nc3cnccn3c2NC2CCCCC2)o1)c1ccccn1 [Example 247, N-cyclohexyl-2-(5-(pyridin-2-ylethynyl)furan-2-yl)imidazo[1,2-a]pyrazin-3-amine] | 83
9 | Fc1ccc(Nc2c(-c3ccc(C#Cc4ccccn4)o3)nc3ccccn23)cc1 [Example 287, N-(4-fluorophenyl)-2-(5-(pyridin-2-ylethynyl)furan-2-yl)imidazo[1,2-a]pyridin-3-amine] | 30
10 | Cc1cccc(C#Cc2cccc(-c3nc4ccc(Cl)cn4c3NC3CCCCC3)c2)n1 [Example 193, 6-chloro-N-cyclohexyl-2-(3-((6-methylpyridin-2-yl)ethynyl)phenyl)imidazo[1,2-a]pyridin-3-amine] | 79
11 | Cc1cc(Br)c2nc(-c3cc(C#Cc4ccccc4)cs3)c(NCc3ccc(Cl)cc3)n2c1 [Example 232, 8-bromo-N-(4-chlorobenzyl)-6-methyl-2-(4-(phenylethynyl)thiophen-2-yl)imidazo[1,2-a]pyridin-3-amine] | 75
12 | Cc1ccn2c(NCc3ccc(F)cc3)c(-c3ccc(C#Cc4ccccc4)s3)nc2c1 [Example 51, (4-fluoro-benzyl)-[7-methyl-2-(5-phenylethynyl-thiophen-2-yl)-imidazo[1,2-a]pyridin-3-yl]-amine] | 89
13 | Cc1ccn2c(NC(C)c3ccccc3)c(-c3ccc(C#Cc4ccccc4)s3)nc2c1 (stereo not shown) [Example 28, [7-methyl-2-(5-phenylethynyl-thiophen-2-yl)-imidazo[1,2-a]pyridin-3-yl]-(1-phenyl-ethyl)-amine] | 98
14 | CCc1ccn2c(NCc3ccccc3OC)c(-c3ccc(C#Cc4ccccc4)s3)nc2c1 [Example 44, [7-ethyl-2-(5-phenylethynyl-thiophen-2-yl)-imidazo[1,2-a]pyridin-3-yl]-(2-methoxy-benzyl)-amine] | 75
15 | Cc1cccc(C#Cc2cccc(-c3nc4ccccn4c3NC(C)(C)CC(C)(C)C)c2)n1 [Example 289, 2-(3-((6-methylpyridin-2-yl)ethynyl)phenyl)-N-(2,4,4-trimethylpentan-2-yl)imidazo[1,2-a]pyridin-3-amine] | 51
16 | Cc1cccc(C#Cc2cccc(-c3nc4cnccn4c3NC3CCCC3)c2)n1 [Example 249, N-cyclopentyl-2-(3-((6-methylpyridin-2-yl)ethynyl)phenyl)imidazo[1,2-a]pyrazin-3-amine] | 80
17 | COc1ccccc1CNc1c(-c2ccc(C#Cc3ccccc3)s2)nc2ccccn12 [Example 38, (2-methoxy-benzyl)-[2-(5-phenylethynyl-thiophen-2-yl)-imidazo[1,2-a]pyridin-3-yl]-amine] | 87
18 | Cc1nc(C#Cc2ccccc2)ccc1-c1nc2cnccn2c1NC1CCCCC1 [Example 244, N-cyclohexyl-2-(2-methyl-6-(phenylethynyl)pyridin-3-yl)imidazo[1,2-a]pyrazin-3-amine] | 54
19 | Cc1ccc2nc(-c3cccc(C#Cc4cccc(C)n4)c3)c(NC3CCCCC3)n2c1 [Example 273, N-cyclohexyl-6-methyl-2-(3-((6-methylpyridin-2-yl)ethynyl)phenyl)imidazo[1,2-a]pyridin-3-amine] | 84
20 | COc1ccc(CNc2c(-c3ccc(C#Cc4ccccc4)s3)nc3cnccn23)cc1 [Example 17, (4-methoxy-benzyl)-[2-(5-phenylethynyl-thiophen-2-yl)-imidazo[1,2-a]pyrazin-3-yl]-amine] | 96
21 | CCc1ccn2c(NC3CCCC3)c(-c3ccc(C#Cc4ccccc4)nc3)nc2c1 [Example 302, N-cyclopentyl-7-ethyl-2-(6-(phenylethynyl)pyridin-3-yl)imidazo[1,2-a]pyridin-3-amine] | 55
22 | Cc1cccc2nc(-c3ccc(C#Cc4ccccc4)s3)c(NCC3CCCCC3)n12 [Example 2, cyclohexylmethyl-[5-methyl-2-(5-phenylethynyl-thiophen-2-yl)-imidazo[1,2-a]pyridin-3-yl]-amine] | 95
23 | Cc1nc(C#Cc2ccccc2)ccc1-c1nc2cnccn2c1NC1CCCC1 [Example 243, N-cyclopentyl-2-(2-methyl-6-(phenylethynyl)pyridin-3-yl)imidazo[1,2-a]pyrazin-3-amine] | 80
24 | Cc1cccn2c(NCc3ccc(Cl)cc3)c(-c3ccc(C#Cc4ccccc4)s3)nc12 [Example 198, N-(4-chlorobenzyl)-8-methyl-2-(5-(phenylethynyl)thiophen-2-yl)imidazo[1,2-a]pyridin-3-amine] | 67

same assay, conditions: 3[H]-MPEP binding

Row | SMILES | pIC50
25 | Cc1cccc(C#Cc2ccc(-c3nc4cnccn4c3NC(C)(C)C)s2)c1 [Example 139, N-tert-butyl-2-(5-(m-tolylethynyl)thiophen-2-yl)imidazo[1,2-a]pyrazin-3-amine] | 7.15
26 | CC(C)(C)Nc1c(-c2ccc(C#Cc3ccccn3)s2)nc2ncccn12 [Example 141, N-tert-butyl-2-(5-(pyridin-2-ylethynyl)thiophen-2-yl)imidazo[1,2-a]pyrimidin-3-amine] | 8.55
27 | Cc1ccn2c(NC(C)(C)C)c(-c3ccc(C#Cc4ccccc4)s3)nc2c1 [Example 101, N-tert-butyl-7-methyl-2-(5-(phenylethynyl)thiophen-2-yl)imidazo[1,2-a]pyridin-3-amine] | 5.61
28 | CC(C)(C)Nc1c(-c2ccc(C#Cc3ncc(F)cc3F)s2)nc2cnccn12 [Example 175, N-tert-butyl-2-(5-((3,5-difluoropyridin-2-yl)ethynyl)thiophen-2-yl)imidazo[1,2-a]pyrazin-3-amine] | 7.29
29 | CC(C)(C)Nc1c(-c2ccc(C#Cc3ccccc3[N+](=O)[O-])s2)nc2cnccn12 [Example 166, N-tert-butyl-2-(5-((2-nitrophenyl)ethynyl)thiophen-2-yl)imidazo[1,2-a]pyrazin-3-amine] | 4.95
30 | CC(C)(C)Nc1c(-c2ccc(C#Cc3ccccn3)o2)nc2cnccn12 [Example 119, N-tert-butyl-2-(5-(pyridin-2-ylethynyl)furan-2-yl)imidazo[1,2-a]pyrazin-3-amine] | 7.44
31 | CC(C)(C)Nc1c(-c2nc(C#Cc3ccccc3)cs2)nc2cnccn12 [Example 138, N-tert-butyl-2-(4-(phenylethynyl)thiazol-2-yl)imidazo[1,2-a]pyrazin-3-amine] | 4.82
32 | COC(=O)c1cccc(C#Cc2ccc(-c3nc4cnccn4c3NC(C)(C)C)s2)c1 [Example 174, methyl-3-((5-(3-(tert-butylamino)imidazo[1,2-a]pyrazin-2-yl)thiophen-2-yl)ethynyl)benzoate] | 6.08
33 | CC(C)CNc1c(-c2ccc(C#Cc3ccccc3)s2)nc2cnccn12 [Example 71, (2-methylpropyl)-[2-(5-phenylethynyl-thiophen-2-yl)-imidazo[1,2-a]pyrazin-3-yl]-amine] | 5.90
34 | C=Cc1cccc(C#Cc2ccc(-c3nc4cnccn4c3NC(C)(C)C)s2)c1 [Example 184, N-tert-butyl-2-(5-((3-vinylphenyl)ethynyl)thiophen-2-yl)imidazo[1,2-a]pyrazin-3-amine] | 6.57
35 | CC(C)(C)Nc1c(-c2ccc(C#Cc3cccc(CN)c3)s2)nc2cnccn12 [Example 154, 2-(5-((3-(aminomethyl)phenyl)ethynyl)thiophen-2-yl)-N-tert-butylimidazo[1,2-a]pyrazin-3-amine] | 6.23
36 | CC(C)(C)Nc1c(-c2ccc(C#Cc3cccc(C=O)c3)s2)nc2cnccn12 [Example 178, 3-((5-(3-(tert-butylamino)imidazo[1,2-a]pyrazin-2-yl)thiophen-2-yl)ethynyl)benzaldehyde] | 7.62
37 | CC(C)(C)Nc1c(-c2ccc(C#Cc3cccs3)s2)nc2ccccn12 [Example 343, N-tert-butyl-2-(5-(thiophen-2-ylethynyl)thiophen-2-yl)imidazo[1,2-a]pyridin-3-amine hydrochloride] | 7.03
